Laboratory results reported in the kinase profiling compilation of Christmann-Franck et al. (2016).
Each block holds one molecule with its values, some of them ahead of it.

Experiments:
Experiment in all cases: Caliper, Mobility shift assay off-chip
[1] = target: LCK (human) (UniProt P06239)
[2] = target: HCK (human) (UniProt P08631)
[3] = target: PIM1 (human) (UniProt P11309)
[4] = target: AKT3 (human) (UniProt Q9Y243)
[5] = target: MAPKAPK3 (human) (UniProt Q16644)
[6] = target: CAMK2G (human) (UniProt Q13555)
[7] = target: CDK2 (human) (UniProt P24941)
[8] = target: SRC (human) (UniProt P12931)
[9] = target: MAPK13 (human) (UniProt O15264)
[10] = target: SGK3 (human) (UniProt Q96BR1)
[11] = target: ABL1 (human) (UniProt P00519)
[12] = target: PRKCQ (human) (UniProt Q04759)
[13] = target: DCLK2 (human) (UniProt Q8N568)
[14] = target: KDR (human) (UniProt P35968)
[15] = target: FGFR2 (human) (UniProt P21802)
[16] = target: PRKCZ (human) (UniProt Q05513)
[17] = target: TSSK1B (human) (UniProt Q9BXA7)
[18] = target: CAMK2B (human) (UniProt Q13554)
[19] = target: ABL2 (human) (UniProt P42684)
[20] = target: CHEK1 (human) (UniProt O14757)
[21] = target: LYN (human) (UniProt P07948)
[22] = target: CSNK1D (human) (UniProt P48730)
[23] = target: FGFR3 (human) (UniProt P22607)
[24] = target: RPS6KA1 KD1 KD2 (human) (UniProt Q15418)
[25] = target: BRSK2 (human) (UniProt Q8IWQ3)
[26] = target: GSK3B (human) (UniProt P49841)
[27] = target: PRKCH (human) (UniProt P24723)
[28] = target: DYRK1A (human) (UniProt Q13627)
[29] = target: PRKACA (human) (UniProt P17612)
[30] = target: MAP4K4 (human) (UniProt O95819)
[31] = target: IRAK4 (human) (UniProt Q9NWZ3)
[32] = target: PDGFRA (human) (UniProt P16234)
[33] = target: IGF1R (human) (UniProt P08069)
[34] = target: BRSK1 (human) (UniProt Q8TDC3)
Sequence of BRSK1 (human) (Q8TDC3 whole entry, looked up): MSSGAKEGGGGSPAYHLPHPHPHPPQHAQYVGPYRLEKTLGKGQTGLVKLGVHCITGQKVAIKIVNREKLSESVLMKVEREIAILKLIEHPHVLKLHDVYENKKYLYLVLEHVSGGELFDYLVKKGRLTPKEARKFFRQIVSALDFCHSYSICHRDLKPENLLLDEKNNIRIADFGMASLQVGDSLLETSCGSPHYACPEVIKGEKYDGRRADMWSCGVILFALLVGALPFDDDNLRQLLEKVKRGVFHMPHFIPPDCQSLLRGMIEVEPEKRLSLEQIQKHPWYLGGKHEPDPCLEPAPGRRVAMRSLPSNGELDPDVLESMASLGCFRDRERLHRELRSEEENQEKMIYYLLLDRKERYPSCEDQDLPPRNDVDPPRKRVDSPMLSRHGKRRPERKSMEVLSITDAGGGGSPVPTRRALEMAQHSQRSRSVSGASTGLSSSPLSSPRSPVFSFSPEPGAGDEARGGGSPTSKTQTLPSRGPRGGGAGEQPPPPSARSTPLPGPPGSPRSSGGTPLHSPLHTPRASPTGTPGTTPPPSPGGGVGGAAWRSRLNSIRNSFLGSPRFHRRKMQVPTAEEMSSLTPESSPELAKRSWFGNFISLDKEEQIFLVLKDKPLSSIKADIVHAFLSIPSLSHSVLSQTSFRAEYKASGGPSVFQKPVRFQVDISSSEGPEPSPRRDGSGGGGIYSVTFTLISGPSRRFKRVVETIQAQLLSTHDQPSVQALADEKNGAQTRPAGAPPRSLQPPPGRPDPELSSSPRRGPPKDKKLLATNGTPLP

Sequence of PIM1 (human) (P11309 whole entry, looked up): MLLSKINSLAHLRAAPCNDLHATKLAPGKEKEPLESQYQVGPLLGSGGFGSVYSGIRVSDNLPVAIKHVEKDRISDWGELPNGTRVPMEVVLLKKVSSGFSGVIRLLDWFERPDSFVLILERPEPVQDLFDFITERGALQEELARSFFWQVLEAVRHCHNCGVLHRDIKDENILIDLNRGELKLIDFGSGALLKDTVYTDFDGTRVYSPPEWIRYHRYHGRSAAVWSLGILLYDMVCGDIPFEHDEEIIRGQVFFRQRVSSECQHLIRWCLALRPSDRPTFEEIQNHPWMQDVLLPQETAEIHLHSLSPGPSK
Sequence of IRAK4 (human) (Q9NWZ3 whole entry, looked up): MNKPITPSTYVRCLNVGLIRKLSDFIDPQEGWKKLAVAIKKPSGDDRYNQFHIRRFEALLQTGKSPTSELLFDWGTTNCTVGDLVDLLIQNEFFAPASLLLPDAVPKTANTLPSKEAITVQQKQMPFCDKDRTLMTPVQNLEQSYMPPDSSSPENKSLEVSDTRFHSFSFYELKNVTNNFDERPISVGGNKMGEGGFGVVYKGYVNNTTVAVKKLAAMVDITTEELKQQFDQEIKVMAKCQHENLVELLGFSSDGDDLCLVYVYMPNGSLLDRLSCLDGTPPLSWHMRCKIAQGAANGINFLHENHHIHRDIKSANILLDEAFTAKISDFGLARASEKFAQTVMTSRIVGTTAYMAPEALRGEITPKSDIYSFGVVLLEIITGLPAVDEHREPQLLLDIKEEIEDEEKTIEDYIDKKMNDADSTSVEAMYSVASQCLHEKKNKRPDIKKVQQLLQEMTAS
Sequence of HCK (human) (P08631 whole entry, looked up): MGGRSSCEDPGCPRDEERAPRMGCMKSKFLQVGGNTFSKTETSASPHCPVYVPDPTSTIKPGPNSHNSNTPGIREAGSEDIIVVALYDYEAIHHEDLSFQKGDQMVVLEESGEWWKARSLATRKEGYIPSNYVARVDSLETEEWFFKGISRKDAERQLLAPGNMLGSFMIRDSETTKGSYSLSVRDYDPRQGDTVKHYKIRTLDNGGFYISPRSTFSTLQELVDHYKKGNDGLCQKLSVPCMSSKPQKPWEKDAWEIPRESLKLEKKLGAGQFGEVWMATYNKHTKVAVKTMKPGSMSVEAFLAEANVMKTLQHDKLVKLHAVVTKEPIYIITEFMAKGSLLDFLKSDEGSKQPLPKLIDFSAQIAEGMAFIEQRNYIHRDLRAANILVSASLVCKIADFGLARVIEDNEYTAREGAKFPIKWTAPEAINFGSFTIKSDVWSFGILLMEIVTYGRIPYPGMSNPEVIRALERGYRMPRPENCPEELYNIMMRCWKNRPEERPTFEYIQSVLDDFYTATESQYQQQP
Sequence of PRKCH (human) (P24723 whole entry, looked up): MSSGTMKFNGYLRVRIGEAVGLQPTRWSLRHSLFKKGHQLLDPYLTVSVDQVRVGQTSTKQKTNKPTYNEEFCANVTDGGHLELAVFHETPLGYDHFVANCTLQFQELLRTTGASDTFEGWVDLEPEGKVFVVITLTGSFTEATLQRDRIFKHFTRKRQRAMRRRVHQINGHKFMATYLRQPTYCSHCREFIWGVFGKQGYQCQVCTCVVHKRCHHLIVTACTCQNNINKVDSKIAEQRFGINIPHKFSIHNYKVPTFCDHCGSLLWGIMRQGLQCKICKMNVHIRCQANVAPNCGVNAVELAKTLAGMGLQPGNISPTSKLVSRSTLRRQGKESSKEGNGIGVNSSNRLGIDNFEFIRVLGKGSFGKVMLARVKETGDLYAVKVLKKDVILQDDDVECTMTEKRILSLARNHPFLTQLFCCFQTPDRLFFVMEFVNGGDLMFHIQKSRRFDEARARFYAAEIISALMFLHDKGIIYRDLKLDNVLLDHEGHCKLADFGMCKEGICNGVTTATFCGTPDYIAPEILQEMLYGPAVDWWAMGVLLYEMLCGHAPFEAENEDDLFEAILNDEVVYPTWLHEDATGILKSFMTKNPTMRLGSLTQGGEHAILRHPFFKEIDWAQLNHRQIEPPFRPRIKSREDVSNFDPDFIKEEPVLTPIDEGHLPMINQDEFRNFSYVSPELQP
Sequence of ABL2 (human) (P42684 whole entry, looked up): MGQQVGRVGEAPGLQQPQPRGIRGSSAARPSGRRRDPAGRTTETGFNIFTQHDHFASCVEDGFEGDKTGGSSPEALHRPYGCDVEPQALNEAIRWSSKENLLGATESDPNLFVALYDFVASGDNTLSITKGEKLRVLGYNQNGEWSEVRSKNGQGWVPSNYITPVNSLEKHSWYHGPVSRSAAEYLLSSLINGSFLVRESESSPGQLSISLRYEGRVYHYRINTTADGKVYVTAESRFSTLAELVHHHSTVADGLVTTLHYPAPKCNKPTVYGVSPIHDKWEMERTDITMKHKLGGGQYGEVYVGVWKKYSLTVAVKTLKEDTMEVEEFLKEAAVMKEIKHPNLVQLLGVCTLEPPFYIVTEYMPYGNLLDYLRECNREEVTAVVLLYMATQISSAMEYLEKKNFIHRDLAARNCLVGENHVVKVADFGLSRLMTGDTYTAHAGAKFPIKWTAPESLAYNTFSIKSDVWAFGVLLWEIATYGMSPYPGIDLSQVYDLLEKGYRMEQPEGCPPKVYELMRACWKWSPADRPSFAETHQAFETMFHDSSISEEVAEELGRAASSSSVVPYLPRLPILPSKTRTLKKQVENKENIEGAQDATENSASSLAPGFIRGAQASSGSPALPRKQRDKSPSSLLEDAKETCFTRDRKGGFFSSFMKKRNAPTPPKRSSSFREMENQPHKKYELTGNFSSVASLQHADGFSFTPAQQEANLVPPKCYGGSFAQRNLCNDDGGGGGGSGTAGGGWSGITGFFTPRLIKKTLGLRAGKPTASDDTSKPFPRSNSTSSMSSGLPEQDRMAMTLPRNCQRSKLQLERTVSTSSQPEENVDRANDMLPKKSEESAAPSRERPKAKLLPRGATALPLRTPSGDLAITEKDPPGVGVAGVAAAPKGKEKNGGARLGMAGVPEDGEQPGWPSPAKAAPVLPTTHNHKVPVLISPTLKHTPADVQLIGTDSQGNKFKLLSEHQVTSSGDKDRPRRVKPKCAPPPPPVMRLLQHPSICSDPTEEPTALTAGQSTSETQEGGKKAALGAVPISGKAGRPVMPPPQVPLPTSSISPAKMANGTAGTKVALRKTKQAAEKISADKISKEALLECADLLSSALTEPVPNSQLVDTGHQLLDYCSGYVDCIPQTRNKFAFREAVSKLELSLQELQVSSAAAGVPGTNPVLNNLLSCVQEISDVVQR
Sequence of CSNK1D (human) (P48730 whole entry, looked up): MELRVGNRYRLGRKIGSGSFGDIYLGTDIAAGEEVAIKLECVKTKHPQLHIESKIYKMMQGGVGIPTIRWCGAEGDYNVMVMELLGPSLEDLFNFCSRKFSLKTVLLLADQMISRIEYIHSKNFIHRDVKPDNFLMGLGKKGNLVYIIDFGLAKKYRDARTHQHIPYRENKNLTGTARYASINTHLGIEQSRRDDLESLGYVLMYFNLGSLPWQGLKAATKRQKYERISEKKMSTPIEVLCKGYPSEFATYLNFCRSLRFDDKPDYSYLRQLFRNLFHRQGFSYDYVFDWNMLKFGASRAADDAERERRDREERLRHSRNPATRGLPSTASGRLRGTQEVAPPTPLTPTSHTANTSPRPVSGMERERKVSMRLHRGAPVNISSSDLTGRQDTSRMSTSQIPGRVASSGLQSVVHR
Sequence of AKT3 (human) (Q9Y243 whole entry, looked up): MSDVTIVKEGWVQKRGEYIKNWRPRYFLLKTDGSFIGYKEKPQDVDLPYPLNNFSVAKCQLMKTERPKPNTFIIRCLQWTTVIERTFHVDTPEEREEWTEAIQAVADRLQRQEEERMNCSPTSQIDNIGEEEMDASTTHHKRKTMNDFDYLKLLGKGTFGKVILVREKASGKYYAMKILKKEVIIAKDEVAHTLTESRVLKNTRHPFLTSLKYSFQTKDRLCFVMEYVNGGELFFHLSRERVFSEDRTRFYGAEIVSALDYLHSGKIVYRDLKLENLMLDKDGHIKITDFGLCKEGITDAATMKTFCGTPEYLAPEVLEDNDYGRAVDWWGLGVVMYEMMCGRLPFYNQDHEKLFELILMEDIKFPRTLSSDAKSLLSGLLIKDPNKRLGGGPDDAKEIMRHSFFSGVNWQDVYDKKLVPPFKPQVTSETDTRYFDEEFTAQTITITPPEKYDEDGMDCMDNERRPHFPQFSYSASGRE

inhibition ([1]; compound 0.1 µM): 18.4%
inhibition ([1]; compound 1.0 µM): -1.2%
inhibition ([2]; compound 0.1 µM): -2.1%
inhibition ([3]; compound 0.1 µM): -4.7%
inhibition ([3]; compound 1.0 µM): -8.3%
inhibition ([4]; compound 0.1 µM): 2%
inhibition ([5]; compound 0.1 µM): -2.7%
inhibition ([6]; compound 0.1 µM): -7.4%
inhibition ([7]; compound 0.1 µM): 1.9%
inhibition ([7]; compound 1.0 µM): 1.4%
inhibition ([8]; compound 0.1 µM): 3.2%
inhibition ([8]; compound 1.0 µM): 2.1%
inhibition ([9]; compound 0.1 µM): -4.9%
inhibition ([10]; compound 0.1 µM): 0.3%
inhibition ([10]; compound 1.0 µM): -0.7%
inhibition ([11]; compound 0.1 µM): 23.1%
inhibition ([11]; compound 1.0 µM): 61.5%
inhibition ([12]; compound 0.1 µM): -15.1%
inhibition ([12]; compound 1.0 µM): 2.1%
inhibition ([13]; compound 0.1 µM): -6%
inhibition ([13]; compound 1.0 µM): -0.3%
inhibition ([14]; compound 0.1 µM): -5.2%
inhibition ([14]; compound 1.0 µM): 41.8%
inhibition ([15]; compound 0.1 µM): 3%
inhibition ([16]; compound 0.1 µM): -8%
inhibition ([16]; compound 1.0 µM): 1.3%
inhibition ([17]; compound 0.1 µM): -2.7%
inhibition ([18]; compound 0.1 µM): 2.1%
inhibition ([19]; compound 0.1 µM): 3.3%
inhibition ([20]; compound 0.1 µM): 1.1%
inhibition ([20]; compound 1.0 µM): 0.4%
inhibition ([21]; compound 0.1 µM): 17.3%
inhibition ([21]; compound 1.0 µM): 9.6%
inhibition ([22]; compound 0.1 µM): 20.4%
inhibition ([22]; compound 1.0 µM): 7.4%
inhibition ([23]; compound 0.1 µM): -12.6%
inhibition ([24]; compound 0.1 µM): 8.6%
inhibition ([24]; compound 1.0 µM): 0%
inhibition ([25]; compound 0.1 µM): -1.3%
inhibition ([25]; compound 1.0 µM): -9.5%
inhibition ([26]; compound 1.0 µM): 2%
inhibition ([27]; compound 0.1 µM): 3.1%
inhibition ([27]; compound 1.0 µM): 1.4%
inhibition ([28]; compound 0.1 µM): 2.3%
inhibition ([28]; compound 1.0 µM): 2.1%
inhibition ([29]; compound 0.1 µM): -1.4%
inhibition ([29]; compound 1.0 µM): 0.3%
inhibition ([30]; compound 0.1 µM): 4.1%
inhibition ([30]; compound 1.0 µM): 15.7%
inhibition ([31]; compound 0.1 µM): 31.2%
inhibition ([31]; compound 1.0 µM): 40.2%
inhibition ([32]; compound 0.1 µM): 17.5%
inhibition ([33]; compound 0.1 µM): 4.9%
inhibition ([33]; compound 1.0 µM): -8.3%
inhibition ([34]; compound 0.1 µM): 2%
inhibition ([34]; compound 1.0 µM): 5.2%
SMILES: Cn1cc(-c2cnc3ccc4ccc(CS(=O)(=O)NCC5CCCCN5)cc4c(=O)c3c2)cn1 (centres undefined)

inhibition ([1]; compound 0.1 µM): 9.2%
inhibition ([1]; compound 1.0 µM): 0.5%
inhibition ([2]; compound 0.1 µM): -5.1%
inhibition ([2]; compound 1.0 µM): 1.6%
inhibition ([3]; compound 0.1 µM): -3.6%
inhibition ([3]; compound 1.0 µM): -16.7%
inhibition ([4]; compound 0.1 µM): 6.4%
inhibition ([4]; compound 1.0 µM): -5.8%
inhibition ([5]; compound 0.1 µM): 1.8%
inhibition ([5]; compound 1.0 µM): -5.4%
inhibition ([6]; compound 0.1 µM): -0.2%
inhibition ([6]; compound 1.0 µM): -1.5%
inhibition ([7]; compound 0.1 µM): -6.3%
inhibition ([7]; compound 1.0 µM): -3.4%
inhibition ([8]; compound 0.1 µM): -0.3%
inhibition ([8]; compound 1.0 µM): 4.8%
inhibition ([9]; compound 0.1 µM): -7.9%
inhibition ([9]; compound 1.0 µM): -7.1%
inhibition ([10]; compound 0.1 µM): -10.4%
inhibition ([10]; compound 1.0 µM): 6.2%
inhibition ([11]; compound 0.1 µM): 0.2%
inhibition ([11]; compound 1.0 µM): 11.6%
inhibition ([12]; compound 0.1 µM): -11.5%
inhibition ([12]; compound 1.0 µM): -19.7%
inhibition ([13]; compound 0.1 µM): -6.4%
inhibition ([13]; compound 1.0 µM): -2.5%
inhibition ([14]; compound 0.1 µM): 7.9%
inhibition ([14]; compound 1.0 µM): 28.2%
inhibition ([15]; compound 0.1 µM): 18.3%
inhibition ([15]; compound 1.0 µM): 64.7%
inhibition ([16]; compound 0.1 µM): 3.2%
inhibition ([16]; compound 1.0 µM): 6.8%
inhibition ([17]; compound 0.1 µM): 19.8%
inhibition ([17]; compound 1.0 µM): -1.7%
inhibition ([18]; compound 0.1 µM): 20.2%
inhibition ([19]; compound 0.1 µM): -5.3%
inhibition ([19]; compound 1.0 µM): 6.8%
inhibition ([20]; compound 0.1 µM): 2%
inhibition ([20]; compound 1.0 µM): 2.5%
inhibition ([21]; compound 0.1 µM): -7.4%
inhibition ([21]; compound 1.0 µM): 5.9%
inhibition ([22]; compound 0.1 µM): 7.8%
inhibition ([22]; compound 1.0 µM): 8.9%
inhibition ([23]; compound 0.1 µM): 34.5%
inhibition ([24]; compound 0.1 µM): -15.2%
inhibition ([24]; compound 1.0 µM): -0.8%
inhibition ([25]; compound 0.1 µM): 1.5%
inhibition ([25]; compound 1.0 µM): 2.5%
inhibition ([26]; compound 0.1 µM): -3.5%
inhibition ([26]; compound 1.0 µM): 3%
inhibition ([27]; compound 0.1 µM): -8.3%
inhibition ([27]; compound 1.0 µM): -5.7%
inhibition ([28]; compound 0.1 µM): -4.6%
inhibition ([28]; compound 1.0 µM): -2.8%
inhibition ([29]; compound 0.1 µM): -13.6%
inhibition ([29]; compound 1.0 µM): 2.4%
inhibition ([30]; compound 0.1 µM): -2%
inhibition ([30]; compound 1.0 µM): 10.6%
inhibition ([31]; compound 0.1 µM): -12%
inhibition ([31]; compound 1.0 µM): 4.2%
inhibition ([32]; compound 0.1 µM): -13%
inhibition ([33]; compound 0.1 µM): -23.8%
inhibition ([33]; compound 1.0 µM): -10%
inhibition ([34]; compound 0.1 µM): -11.7%
inhibition ([34]; compound 1.0 µM): 0.3%
SMILES: Cn1cc(-c2cnc3ccc4ccc(CS(=O)(=O)CCc5ccccn5)cc4c(=O)c3c2)cn1

inhibition ([1]; compound 0.01 µM): -2.9%
inhibition ([1]; compound 0.1 µM): 3.3%
inhibition ([2]; compound 0.01 µM): 2.6%
inhibition ([2]; compound 0.1 µM): -2%
inhibition ([3]; compound 0.01 µM): -4.8%
inhibition ([3]; compound 0.1 µM): -6.2%
inhibition ([4]; compound 0.01 µM): -6.5%
inhibition ([4]; compound 0.1 µM): 5.2%
inhibition ([5]; compound 0.01 µM): -0.3%
inhibition ([5]; compound 0.1 µM): -0.3%
inhibition ([6]; compound 0.01 µM): 6.3%
inhibition ([6]; compound 0.1 µM): 2.1%
inhibition ([7]; compound 0.01 µM): -0.9%
inhibition ([7]; compound 0.1 µM): -0.9%
inhibition ([8]; compound 0.01 µM): -3.8%
inhibition ([8]; compound 0.1 µM): -4.2%
inhibition ([9]; compound 0.01 µM): 5.5%
inhibition ([9]; compound 0.1 µM): -5.7%
inhibition ([10]; compound 0.01 µM): -13.2%
inhibition ([10]; compound 0.1 µM): -7.3%
inhibition ([11]; compound 0.01 µM): -1.8%
inhibition ([11]; compound 0.1 µM): 5.5%
inhibition ([12]; compound 0.01 µM): 3.4%
inhibition ([12]; compound 0.1 µM): -3.8%
inhibition ([13]; compound 0.01 µM): 8.7%
inhibition ([13]; compound 0.1 µM): -0.7%
inhibition ([14]; compound 0.01 µM): -4.1%
inhibition ([14]; compound 0.1 µM): 4.1%
inhibition ([15]; compound 0.01 µM): -8.2%
inhibition ([15]; compound 0.1 µM): 8.7%
inhibition ([16]; compound 0.01 µM): -0.3%
inhibition ([16]; compound 0.1 µM): 4.6%
inhibition ([17]; compound 0.01 µM): 7.3%
inhibition ([17]; compound 0.1 µM): -5.2%
inhibition ([18]; compound 0.01 µM): 79.2%
inhibition ([18]; compound 0.1 µM): -4.6%
inhibition ([19]; compound 0.01 µM): 4.8%
inhibition ([19]; compound 0.1 µM): 3.1%
inhibition ([20]; compound 0.01 µM): -2.8%
inhibition ([20]; compound 0.1 µM): -6%
inhibition ([21]; compound 0.01 µM): -6%
inhibition ([21]; compound 0.1 µM): -9.2%
inhibition ([22]; compound 0.01 µM): 2%
inhibition ([22]; compound 0.1 µM): -2.8%
inhibition ([23]; compound 0.01 µM): -38.6%
inhibition ([23]; compound 0.1 µM): -12.3%
inhibition ([24]; compound 0.01 µM): -1.6%
inhibition ([24]; compound 0.1 µM): 13.5%
inhibition ([25]; compound 0.01 µM): -1.9%
inhibition ([25]; compound 0.1 µM): 4.8%
inhibition ([26]; compound 0.01 µM): -1.8%
inhibition ([26]; compound 0.1 µM): -1%
inhibition ([27]; compound 0.01 µM): -4.3%
inhibition ([27]; compound 0.1 µM): -6.9%
inhibition ([28]; compound 0.01 µM): 7.6%
inhibition ([28]; compound 0.1 µM): -4.3%
inhibition ([29]; compound 0.01 µM): 3.2%
inhibition ([29]; compound 0.1 µM): 0.4%
inhibition ([30]; compound 0.01 µM): -8.5%
inhibition ([30]; compound 0.1 µM): -10.7%
inhibition ([31]; compound 0.01 µM): 19.1%
inhibition ([31]; compound 0.1 µM): -1.2%
inhibition ([32]; compound 0.01 µM): -15.7%
inhibition ([32]; compound 0.1 µM): 4.1%
inhibition ([33]; compound 0.01 µM): 5%
inhibition ([33]; compound 0.1 µM): -2.7%
inhibition ([34]; compound 0.01 µM): 9.9%
inhibition ([34]; compound 0.1 µM): -7.5%
SMILES: O=c1c2cc(CS(=O)(=O)NCc3ccccn3)ccc2ccc2ncc(C3CCNCC3)cc12
